molecular target: T1, Enoyl-[acyl-carrier-protein] reductase [NADPH] FabI (Staphylococcus aureus (strain MRSA252), UniProt Q6GI75); test: Inhibition of Staphylococcus aureus FabI assessed as inhibition of bacterial growth by measuring the NADH consumption rate at 20 mins
T1 sequence (Q6GI75 whole entry): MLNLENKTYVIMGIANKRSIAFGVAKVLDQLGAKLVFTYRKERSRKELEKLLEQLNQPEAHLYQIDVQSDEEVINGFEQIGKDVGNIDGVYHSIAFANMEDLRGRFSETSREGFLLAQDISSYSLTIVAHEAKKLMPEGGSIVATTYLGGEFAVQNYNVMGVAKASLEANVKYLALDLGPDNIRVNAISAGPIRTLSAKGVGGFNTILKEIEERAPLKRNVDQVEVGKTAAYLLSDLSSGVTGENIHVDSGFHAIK

Structure (SMILES) | IC50
NS(=O)(=O)C1C=CC(NC(=O)CCCN2CCOCC2)C=C1 (stereo unspecified) | 310 pM
COc1cc(/C=N/c2ccc(S(N)(=O)=O)cc2)ccc1C(C)=O | 330 pM
NS(=O)(=O)c1ccc(/N=C/C2=C(Cl)CCC=C2)cc1 | 350 pM

molecular target: not listed separately; test: Inhibition of wild type Escherichia coli FabI assessed as inhibition of bacterial growth

Structure (SMILES) | Ki
Oc1cc(F)ccc1Oc1ccccc1 [PT55] | 700 pM
Cc1ccc(Oc2ccccc2)c(O)c1 [PT53] | 7000 pM
Oc1ccccc1Oc1ccccc1 [2-phenoxylphenol] | 500 pM

Reference: BindingDB's records for PubMed 32883635 (National Institute of Pharmaceutical Education and Research …, 2020)
